Results published in patent publication US8399696B2, “Functionalized biodegradable triclosan monomers and oligomers for controlled release” (Bezwada Biomedical, LLC, priority 2007, dated 2013).

Assay: Hydrolysis of 500 mg (0.5 grams) of compound in 50 mL buffer (pH 9 or pH 7) at 50 or 100° C.
Format: physicochemical
Method: Into a clean and dry 1 liter, 3 necked round bottom flask equipped with a nitrogen inlet was added 15 grams of triclosan in 150 ml of ethyl acetate. 15 ml of pyridine was added to the reaction mixture and the reaction mixture was left for stifling at room temperature for 10 minutes. To this stirring solution was added dropwise 24 grams of stearic acid glycolic acid chloride 27 dissolved in 30 ml of ethyl acetate and the reaction was left for stirring at room temperature for twenty four hours following which the […] salt was filtered off and the ethyl acetate layer was washed with 5% solution of sodium bicarbonate followed by drying using sodium sulphate. Ethyl acetate was distilled off using high vacuum distillation to yield 22 grams of crude 28. […]

[1] = 0.5 grams in 50 mL pH 9 buffer, 50° C.
[2] = 500 mg in 50 mL pH 9 buffer, 100° C.

| SMILES | extent of hydrolysis by TLC in 48 hours (0.5 grams in 50 mL pH 7 buffer, 50° C.) | extent of hydrolysis by TLC in 48 hours (0.5 grams in 50 mL pH 7 buffer, 100° C.) | time to hydrolysis (Hydrolyzed in) [1] | time to hydrolysis (Hydrolyzed in) [2] | extent of hydrolysis in 53 hours (0.5 grams in 50 mL pH 7 buffer, 100° C., 53 hours) |
| --- | --- | --- | --- | --- | --- |
| O=C(COc1ccc(OCC(=O)Oc2cc(Cl)ccc2Oc2ccc(Cl)cc2Cl)cc1)Oc1cc(Cl)ccc1Oc1ccc(Cl)cc1Cl [Compound 19, {4-[5-Chloro-2-(2,4-dichloro-phenoxy)-phenoxycarbonylmethoxy]-phenoxy}-acetic acid 5-chloro-2-(2,4-dichloro-phenoxy)-phenyl ester] | By TLC it hydrolyzed around 5% in 48 hours | By TLC it hydrolyzed around 15% in 48 hours | Hydrolyzed in 150 hours |  |  |
| O=C(COCCOc1ccc(OCCOCC(=O)Oc2cc(Cl)ccc2Oc2ccc(Cl)cc2Cl)cc1)Oc1cc(Cl)ccc1Oc1ccc(Cl)cc1Cl [Example 15, [2-(4-{2-[5-Chloro-2-(2,4-dichloro-phenoxy)-phenoxycarbonylmethoxy]-ethoxy}phenoxy)-ethoxy]-acetic acid 5-chloro-2-(2,4-dichloro-phenoxy)-phenyl ester] |  |  | Hydrolyzed in 150 hours |  |  |
| O=C(COCC(=O)Oc1cc(Cl)ccc1Oc1ccc(Cl)cc1Cl)Oc1cc(Cl)ccc1Oc1ccc(Cl)cc1Cl [Example 20] |  |  | Hydrolyzed in 102 hours | Hydrolyzed in 25 hours | Hydrolyzed 50% only in 53 hours |
| CCCCCCCCCCCCCCCCCC(=O)OCC(=O)Oc1cc(Cl)ccc1Oc1ccc(Cl)cc1Cl [Example 28, Triclosan Glycolic Acid Stearate] |  |  |  | 27 h |  |
